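48-hour exposure; five concentrations; linearly interpolated endpoints. The concentration for 50% growth inhibition is given as GI50.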 Active and inactive are the calls of the source. Cut-off read from the data, not from the text of the source: active = GI50 up to about 1.1 µM and inactive = higher.
Legend:
Assay in all cases: inhibition of tumour cell growth, NCI panel, 48 h
SF-539 = tested on: SF-539
SNB-19 = tested on: SNB-19
SK-MEL-28 = tested on: SK-MEL-28
K562 = tested on: K562
LOX IMVI = tested on: LOX IMVI
NCI/ADR-RES = tested on: NCI/ADR-RES
HCT-116 = tested on: HCT-116
SK-MEL-2 = tested on: SK-MEL-2
UACC-257 = tested on: UACC-257
A498 = tested on: A498
HCC 2998 = tested on: HCC 2998
SK-MEL-5 = tested on: SK-MEL-5
HT-29 = tested on: HT-29
DLD-1 = tested on: DLD-1
SNB-75 = tested on: SNB-75
DMS-273 = tested on: DMS-273
SF-295 = tested on: SF-295
NCI-H460 = tested on: NCI-H460
MOLT-4 = tested on: MOLT-4
OVCAR-8 = tested on: OVCAR-8
OVCAR-4 = tested on: OVCAR-4
SNB-78 = tested on: SNB-78
HL-60 = tested on: HL-60
Malme-3M = tested on: Malme-3M
XF498 = tested on: XF498
COLO 205 = tested on: COLO 205
U-251 = tested on: U-251
RXF 393 = tested on: RXF 393
UACC-62 = tested on: UACC-62
CCRF-CEM = tested on: CCRF-CEM
SK-OV-3 = tested on: SK-OV-3
CAKI-1 = tested on: CAKI-1
SW-620 = tested on: SW-620
NCI-H226 = tested on: NCI-H226
HCT-15 = tested on: HCT-15
SF-268 = tested on: SF-268
KM-20L2 = tested on: KM-20L2
UO-31 = tested on: UO-31
KM12 = tested on: KM12
OVCAR-3 = tested on: OVCAR-3
OVCAR-5 = tested on: OVCAR-5
HOP-92 = tested on: HOP-92
A549 = tested on: A549
M19-MEL = tested on: M19-MEL
NCI-H23 = tested on: NCI-H23
SN12C = tested on: SN12C
HOP-18 = tested on: HOP-18
RPMI-8226 = tested on: RPMI-8226
NCI-H522 = tested on: NCI-H522
HOP-62 = tested on: HOP-62
EKVX = tested on: EKVX
IGROV-1 = tested on: IGROV-1
MCF7 = tested on: MCF7
DMS-114 = tested on: DMS-114
ACHN = tested on: ACHN
LXFL 529 = tested on: LXFL 529
TK-10 = tested on: TK-10
M14 = tested on: M14
786-0 = tested on: 786-0

Compound: CN1CCN(P2(=S)Oc3ccc4ccccc4c3-c3c(ccc4ccccc34)O2)CC1
- GI50 (SF-539): 21.5 µM (inactive)
- GI50 (SNB-19): 39.6 µM (inactive)
- GI50 (SK-MEL-28): 41.1 µM (inactive)
- GI50 (K562): 20.7 µM (inactive)
- GI50 (LOX IMVI): 18.9 µM (inactive)
- GI50 (NCI/ADR-RES): 28.7 µM (inactive)
- GI50 (HCT-116): 32.7 µM (inactive)
- GI50 (SK-MEL-2): 18.8 µM (inactive)
- GI50 (UACC-257): 29.7 µM (inactive)
- GI50 (A498): 52.5 µM (inactive)
- GI50 (HCC 2998): 21 µM (inactive)
- GI50 (SK-MEL-5): 22.2 µM (inactive)
- GI50 (HT-29): 19.6 µM (inactive)
- GI50 (DLD-1): 34.6 µM (inactive)
- GI50 (SNB-75): 37.5 µM (inactive)
- GI50 (DMS-273): 22.4 µM (inactive)
- GI50 (SF-295): 34.9 µM (inactive)
- GI50 (NCI-H460): 19.5 µM (inactive)
- GI50 (MOLT-4): 15.1 µM (inactive)
- GI50 (OVCAR-8): 37.2 µM (inactive)
- GI50 (OVCAR-4): 36.6 µM (inactive)
- GI50 (SNB-78): 50.4 µM (inactive)
- GI50 (HL-60): 13.1 µM (inactive)
- GI50 (Malme-3M): 21.4 µM (inactive)
- GI50 (XF498): 28.8 µM (inactive)
- GI50 (COLO 205): 16.5 µM (inactive)
- GI50 (U-251): 32.7 µM (inactive)
- GI50 (RXF 393): 25.6 µM (inactive)
- GI50 (UACC-62): 34.5 µM (inactive)
- GI50 (CCRF-CEM): 29.8 µM (inactive)
- GI50 (SK-OV-3): > 71.3 µM (inactive)
- GI50 (CAKI-1): 15.4 µM (inactive)
- GI50 (SW-620): 39 µM (inactive)
- GI50 (NCI-H226): 26.2 µM (inactive)
- GI50 (HCT-15): 28.7 µM
- GI50 (SF-268): 38.4 µM (inactive)
- GI50 (KM-20L2): 22.8 µM (inactive)
- GI50 (UO-31): 18.4 µM (inactive)
- GI50 (KM12): 21.6 µM (inactive)
- GI50 (OVCAR-3): 27.9 µM (inactive)
- GI50 (OVCAR-5): 54.7 µM (inactive)
- GI50 (HOP-92): 13.6 µM (inactive)
- GI50 (A549): 40.3 µM (inactive)
- GI50 (M19-MEL): 30.3 µM (inactive)
- GI50 (NCI-H23): 37.5 µM (inactive)
- GI50 (SN12C): 33.5 µM (inactive)
- GI50 (HOP-18): > 65.2 µM (inactive)
- GI50 (RPMI-8226): 7.8 µM (inactive)
- GI50 (NCI-H522): 24.2 µM (inactive)
- GI50 (HOP-62): 26.3 µM (inactive)
- GI50 (EKVX): 29.6 µM (inactive)
- GI50 (IGROV-1): 53.1 µM (inactive)
- GI50 (MCF7): 13.6 µM (inactive)
- GI50 (DMS-114): 29.6 µM (inactive)

Compound: CN1c2ccccc2N(C(=O)c2ccc(Cl)cc2)C(CC(=O)O)c2cccn21 (stereo not drawn)
- GI50 (SF-539): > 100 µM (inactive)
- GI50 (SNB-19): > 100 µM (inactive)
- GI50 (SK-MEL-28): > 100 µM (inactive)
- GI50 (K562): > 100 µM (inactive)
- GI50 (LOX IMVI): > 100 µM (inactive)
- GI50 (ACHN): > 100 µM (inactive)
- GI50 (SK-MEL-2): > 100 µM (inactive)
- GI50 (UACC-257): > 100 µM (inactive)
- GI50 (A498): > 100 µM (inactive)
- GI50 (HCC 2998): > 100 µM (inactive)
- GI50 (SK-MEL-5): > 100 µM (inactive)
- GI50 (HT-29): > 100 µM (inactive)
- GI50 (LXFL 529): > 100 µM (inactive)
- GI50 (DLD-1): > 100 µM (inactive)
- GI50 (SNB-75): > 100 µM (inactive)
- GI50 (DMS-273): > 100 µM (inactive)
- GI50 (SF-295): > 100 µM (inactive)
- GI50 (TK-10): > 100 µM (inactive)
- GI50 (NCI-H460): > 100 µM (inactive)
- GI50 (MOLT-4): > 100 µM (inactive)
- GI50 (OVCAR-8): > 100 µM (inactive)
- GI50 (OVCAR-4): > 100 µM (inactive)
- GI50 (SNB-78): > 100 µM (inactive)
- GI50 (M14): > 100 µM (inactive)
- GI50 (HL-60): > 100 µM (inactive)
- GI50 (Malme-3M): > 100 µM (inactive)
- GI50 (XF498): > 100 µM (inactive)
- GI50 (COLO 205): > 100 µM (inactive)
- GI50 (RXF 393): > 100 µM (inactive)
- GI50 (UACC-62): > 100 µM (inactive)
- GI50 (CCRF-CEM): > 100 µM (inactive)
- GI50 (SK-OV-3): > 100 µM (inactive)
- GI50 (CAKI-1): > 100 µM (inactive)
- GI50 (SW-620): > 100 µM (inactive)
- GI50 (NCI-H226): > 100 µM (inactive)
- GI50 (786-0): > 100 µM (inactive)
- GI50 (HCT-15): > 100 µM
- GI50 (SF-268): > 100 µM (inactive)
- GI50 (KM-20L2): > 100 µM (inactive)
- GI50 (UO-31): > 100 µM (inactive)
- GI50 (KM12): > 100 µM (inactive)
- GI50 (OVCAR-3): > 100 µM (inactive)
- GI50 (OVCAR-5): > 100 µM (inactive)
- GI50 (HOP-92): > 100 µM (inactive)
- GI50 (A549): > 100 µM (inactive)
- GI50 (M19-MEL): > 100 µM (inactive)
- GI50 (NCI-H23): > 100 µM (inactive)
- GI50 (SN12C): > 100 µM (inactive)
- GI50 (RPMI-8226): > 100 µM (inactive)
- GI50 (NCI-H522): > 100 µM (inactive)
- GI50 (HOP-62): > 100 µM (inactive)
- GI50 (EKVX): > 100 µM (inactive)
- GI50 (IGROV-1): > 100 µM (inactive)
- GI50 (DMS-114): > 100 µM (inactive)

Reference: ChEMBL document CHEMBL1201862, “PubChem BioAssay data set” (2004)
